“Also recorded” adds a separate entry of the source. Read-outs that look alike come from different tables or passages of the source. Each block holds one molecule with its values, some of them ahead of it. Starred links: 1 amine or outer side, 2 acyl side, 3 side chain; linkers in the order of their positions; H or OH if unused. Non-standard residues stand in square brackets, D forms with d. Residues, ends and D or L forms follow the SMILES beside them. No end group written: not given here. *: point of attachment. Glyψ(1,4-Tz)Leu = CC(C)C[C@@H](C(=O)[*:2])n1cc(CN[*:1])nn1; γGlu = O=C(O)[C@H](CCC(=O)[*:2])N[*:1]; Arg(Me) = CNC(=N)NCCC[C@H](N)C(=O)O; Palmitoyl = CCCCCCCCCCCCCCCC(=O)*
What was measured:
hKiSS1R = target: T1, hKiSS1R (Homo sapiens, UniProt Q969F8); assay: intracellular Ca2+ mobilization assay (Fluo4 NW) in KiSS1R-transfected HEK293A cells; format: cell-based; details: for EC50: SEM
T1 construct: expressed in transfected cells; host or cells: HEK293A
Text: Figure 1 Chemical structures and half maximal effective concentration (mean ± SEM, N = 3) of kisspeptin 10 and analogs C2–C7 as measured in a calcium mobilization assay in KiSS1R-transfected HEK293 cell line. Ac: acetyl; Palm-γ-Glu: N-palmitoylated-γ-glutamate, Tz: Triazole; Me: Methyl. TEXT PRINTED IN THE PICTURE: Kp10 1: EC50 (nM): 2.6 ± 2.2 | 2: EC50 (nM): 0.07 ± 0.06 | 3: EC50 (nM): 1.6 ± 0.2 | 4: EC50 (nM): 216 ± 110 | 5: EC50 (nM): 0.22 ± 0.33 | 6: EC50 (nM): 0.33 ± 0.24 | 7: EC50 (nM): 0.04 ± 0.02
Receptor activation was monitored using Fluo4 NW Ca^2+ assay kit in HEK293A cells transfected with the hKiSS1R as previously described[11] (kind gift of professor N. de Roux, INSERM U690, Hôpital Robert Debré, Paris, France). Considering the type of analysis performed, assessment of second messenger activation of a heterologous expressed receptor, the use of potentially misidentified cells has no impact on the result. Basal fluorescence was measured with a plate reader (PolarStar Optima, BMG Labtech). Immediately after the basal reading, the test compound was added at different concentrations and the intracellular Ca^2+ dynamic monitored. To generate concentration activity curves, the mean basal value was subtracted from the value obtained after stimulation. The area under the curve (AUC) was calculated and plotted against concentrations. Concentration activity data points were fitted to sigmoidal curves generated by GraphPad Prism 5 and EC50 automatically calculated.

ewes [1] = assay: LH plasma concentration in ewes during artificial luteal phase (under flugestone acetate), intramuscular injection; format: in vivo, ewe (Ile de France); details: 15 nmol/ewe im, breeding season, ewes under FA treatment, N = 6
Description: (§1) To induce an artificial luteal phase intact cyclic (October–December) or anestrus acyclic (March–June) ewes were implanted with vaginal sponge containing FA (Chronogest, Intervet), a progesterone analog, for 14 days. To compare the activity of Kp, C3, C5 and C6 injection of test drug was performed during the treatment with FA. For the experiments of synchronization and induction of ovulation 24 hours before drug injection the vaginal sponge was removed and the same day a catheter (ID 1.0, L 52 mm, Intraflon 2, Vygon, France) was inserted in the jugular vein. On the day of experiment the test compound was injected intramuscularly and blood samples (2 mL) were taken at various time intervals post-injection: every10 minutes for the first hour, every 20 minutes from 2 to 6 hours, every 60 minutes from 6 to 10 hours and every 120 minutes from 10 hours to the end of the experiment). Data are expressed as means ± SEM (N = 6–12 per group, for details on group size see figure legends).
Plasma LH concentrations in ewe were measured using previously described radioimmunoassays. The assay standard was 1055-CY-LH (equivalent to 2.2 NIH-LH-S1). Intra-assay coefficient of variation averaged 9% and assay sensitivity was 0.2 ± 0.05 ng/mL. Plasma FSH levels were measured using the reagents supplied by Tucker Endocrine Research Institute (Atlanta, Georgia, USA). […]

ewes [2] = assay: LH surge / ovulation induction in ewes injected 24 h after flugestone acetate withdrawal (LH, FSH, progesterone); format: in vivo, ewe (Ile de France); details: 15 nmol/ewe im
Description: as §1
Plasma LH concentrations in ewe were measured using previously described radioimmunoassays. […] Plasma FSH levels were measured using the reagents supplied by Tucker Endocrine Research Institute (Atlanta, Georgia, USA). […]
Progesterone was measured by an ELISA assay on 96-well plate (Immuno Nunc Maxisorp C96) coated with goat anti-mouse IgG (Uptima UP462140, Interchim) overnight at 4 °C. […]

KiSS1R KO mice = assay: circulating LH concentration in KiSS1R KO mice; format: in vivo, mouse
Description: Adult male and female KiSS1R KO mice[41] were primed by 5 ip injections of 40 ng/100 μL GnRH at 30 minute intervals and an equivalent volume of saline was injected to wild type mice. This protocol allows the pituitary gland to become more responsive to GnRH in this mouse line as previously reported. Blood samples (4 μL) were collected from the tail tip as previously described, before the first, third and fifth injection, and 30, 105 and 125 minutes after the last injection. C6 was injected immediately after the last blood sampling (0.3 nmoles/200 μL, a dose established in a preliminary experiment) and blood samples taken 20, 40, 60, 90, 120, 180, 300 minutes following injection. After 300 minutes a further injection of GnRH (40 ng/100 μL) was performed in KiSS1R KO mice, and a final blood sample was taken 30 minutes later to confirm the functionality of the HPG axis. Whole blood samples were collected in 150 μL of 0.1 M PBS-0.05% Tween20, mixed and moved to dry ice at the end of each sampling round. Experiments were conducted during the first 8 hours of the light phase to avoid any endogenous LH surges associated with the preovulatory stage of the female reproductive cycle. Data are expressed as means ± SEM (N = 4–7 per group, for details on group size see figure legends).
A sandwich ELISA, adapted from Steyn et al.[42], was used to measure LH concentration in mice. Monoclonal bovine LHβ 518 B7 (1:1,000 dilution) was used as the capture antibody (obtained from Lillian Sibley at University of California Davis), and the standard was NIDDK mouse LH reference preparation from AF Parlow (AFP5306A mouse RIA kit). The assay sensitivity was 0.2 ng/mL and the mean intra-assay coefficient of variation averaged 11%.

[3] = KiSS1R-transfected HEK293 cell line, Fluo4 NW, AUC fitted, mean ± SEM, N = 3, read-out: EC50, calcium mobilization
[4] = 40 ng GnRH 300 min after C6, sample 30 min later
[5] = 5 ip injections of 40 ng GnRH at 30 min intervals, 15 minutes post injection

T1 sequence (Q969F8 whole entry): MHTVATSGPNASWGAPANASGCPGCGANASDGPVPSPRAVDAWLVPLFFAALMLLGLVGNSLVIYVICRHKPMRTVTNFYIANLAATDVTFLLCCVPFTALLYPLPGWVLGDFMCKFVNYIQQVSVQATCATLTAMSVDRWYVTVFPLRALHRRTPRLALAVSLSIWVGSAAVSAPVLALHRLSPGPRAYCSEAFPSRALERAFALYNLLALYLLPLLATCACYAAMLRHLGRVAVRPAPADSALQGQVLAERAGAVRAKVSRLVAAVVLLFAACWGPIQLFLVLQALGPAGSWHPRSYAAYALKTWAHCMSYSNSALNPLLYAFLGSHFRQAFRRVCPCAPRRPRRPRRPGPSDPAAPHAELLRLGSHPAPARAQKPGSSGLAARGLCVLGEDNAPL

Molecule: CCCCCCCCCCCCCCCC(=O)N[C@@H](CCC(=O)N[C@@H](Cc1ccc(O)cc1)C(=O)N[C@@H](CC(N)=O)C(=O)N[C@@H](Cc1c[nH]c2ccccc12)C(=O)N[C@@H](CC(N)=O)C(=O)N[C@@H](CO)C(=O)N[C@@H](Cc1ccccc1)C(=O)NCc1cn([C@@H](CC(C)C)C(=O)N[C@@H](CCCNC(=N)NC)C(=O)N[C@@H](Cc2ccc(O)cc2)C(N)=O)nn1)C(=O)O [C6] ({Palmitoyl-γGlu}-YNWNSF[Glyψ(1,4-Tz)Leu][Arg(Me)]Y-NH2)
enhancement in EC50 compared to C3 (hKiSS1R; C6 versus first generation analog C3): ~ 5 fold | EC50 (hKiSS1R): 330 ± 240 pM

Molecule: gonadotropin releasing hormone (QHWSYGLRPG; ends and bridges not checked; UniProt P13562 22-31, looked up) [GnRH, hormone injected ip to prime KiSS1R KO mice and check pituitary function]
LH after further GnRH injection at end of experiment, KO females (KiSS1R KO mice; [4]): 4.8 ± 1.9 ng/mL | LH after further GnRH injection at end of experiment, KO males (KiSS1R KO mice; [4]): 3.2 ± 0.4 ng/mL | LH after GnRH priming, KO females (KiSS1R KO mice; [5]): 2.3 ± 0.8 ng/mL | LH after GnRH priming, KO males (KiSS1R KO mice; [5]): 2.7 ± 0.6 ng/mL | fold increase of circulating LH after GnRH priming (KiSS1R KO mice; KiSS1R KO mice, 15 minutes post injection): 3–6 fold

Molecule: CCCCCCCCCCCCCCCC(=O)N[C@@H](CCC(=O)N[C@@H](Cc1ccc(O)cc1)C(=O)N[C@@H](CC(N)=O)C(=O)N[C@@H](Cc1c[nH]c2ccccc12)C(=O)N[C@@H](CC(N)=O)C(=O)N[C@@H](CO)C(=O)N[C@@H](Cc1ccccc1)C(=O)NCc1cn([C@@H](CC(C)C)C(=O)N[C@@H](CCCNC(=N)N)C(=O)N[C@@H](Cc2ccc(O)cc2)C(N)=O)nn1)C(=O)O [C5] ({Palmitoyl-γGlu}-YNWNSF[Glyψ(1,4-Tz)Leu]RY-NH2)
EC50 (hKiSS1R; [3]): 220 ± 330 pM

Now from value to molecule, other results behind:

EC50 (hKiSS1R; [3]): 40 ± 20 pM
Molecule: CNC(=N)NCCC[C@H](NC(=O)[C@H](CC(C)C)n1cc(CNC(=O)[C@H](Cc2ccccc2)NC(=O)[C@H](CO)NC(=O)[C@H](CC(N)=O)NC(=O)[C@H](Cc2c[nH]c3ccccc23)NC(=O)[C@H](CC(N)=O)NC(=O)[C@H](Cc2ccc(O)cc2)NC(C)=O)nn1)C(=O)N[C@@H](Cc1ccc(O)cc1)C(N)=O [C7] (Ac-YNWNSF[Glyψ(1,4-Tz)Leu][Arg(Me)]Y-NH2)

EC50 (hKiSS1R; [3]): 2600 ± 2200 pM
Molecule: YNWNSFGLRY-NH2 [Kp10]
effect on LH plasma concentration (ewes [1]): negligible effect; also recorded: no effect on LH basal level | effect on LH plasma concentration, non-breeding season (ewes [2]; 24 h after ending FA treatment, N = 6): no increase | progesterone level (ewes [2]; non-breeding season, 1 ng mL^−1 threshold = ovulation hallmark): < 1 ng/mL
